This note sets out measurements from patent US9434743B2, “Indazole derivatives” (TAKEDA PHARMACEUTICAL COMPANY LIMITED, priority 2012, dated 2016).

In assay [1] the target is T1, human MetAP2 enzyme (Homo sapiens, UniProt P50579). Description: MetAP2 enzyme assay, enzyme complexed with manganese ions. The note with it: MetAP2 Mn pIC50, MetAP2 enzyme complexed with manganese ions; Met-AMC substrate at Km.
For assay [2], the target named is T1, human MetAP2 enzyme. Description: MetAP2 enzyme assay, enzyme complexed with cobalt ions. As to conditions: MetAP2 Co pIC50, MetAP2 enzyme complexed with cobalt ions; Met-AMC substrate at Km.

T1 sequence (P50579 whole entry): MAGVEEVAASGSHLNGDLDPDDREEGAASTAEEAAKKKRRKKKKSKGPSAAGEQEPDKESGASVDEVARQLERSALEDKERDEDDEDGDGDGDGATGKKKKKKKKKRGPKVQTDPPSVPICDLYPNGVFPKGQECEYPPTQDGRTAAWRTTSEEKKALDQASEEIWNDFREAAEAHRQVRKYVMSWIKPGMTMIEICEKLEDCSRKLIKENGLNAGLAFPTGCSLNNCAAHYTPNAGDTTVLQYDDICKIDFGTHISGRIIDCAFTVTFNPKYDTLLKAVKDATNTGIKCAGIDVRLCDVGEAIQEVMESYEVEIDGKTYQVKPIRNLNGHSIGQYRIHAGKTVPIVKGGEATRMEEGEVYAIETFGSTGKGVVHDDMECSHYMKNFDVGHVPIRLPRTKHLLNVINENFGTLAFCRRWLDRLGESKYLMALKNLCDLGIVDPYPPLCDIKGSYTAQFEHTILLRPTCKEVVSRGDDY

As for `FC(F)(F)c1cc(-c2ccc3scnc3c2)c2cn[nH]c2c1` [Example 107, 5-(6-(trifluoromethyl)-1H-indazol-4-yl)benzo[d]thiazole], the half-inhibitory concentration (IC50) against human MetAP2 enzyme [1] is 0.00501 µM; on human MetAP2 enzyme [2] it was 0.0316 µM.

Turning to `Cc1nn(C)c(C)c1-c1cc(C(F)(F)F)cc2[nH]ncc12` [Example 164, 6-(trifluoromethyl)-4-(1,3,5-trimethyl-1H-pyrazol-4-yl)-1H-indazole], the IC50 was 0.00398 µM against human MetAP2 enzyme [1] and 0.0158 µM on human MetAP2 enzyme [2].

Take `Cc1cc(=O)n(Cc2ccccn2)cc1-c1cc(C(F)(F)F)cc2[nH]ncc12` [Example 406, 4-methyl-1-(pyridin-2-ylmethyl)-5-(6-(trifluoromethyl)-1H-indazol-4-yl)pyridin-2(1H)-one]: the IC50 at human MetAP2 enzyme [1] is 0.0158 µM; on human MetAP2 enzyme [2] it was 0.0794 µM.

For `Cc1nn(CC(N)=O)cc1-c1cc(C(F)(F)F)cc2[nH]ncc12` [Example 274, 2-(3-methyl-4-(6-(trifluoromethyl)-1H-indazol-4-yl)-1H-pyrazol-1-yl)acetamide], the 50% inhibitory concentration (IC50) on human MetAP2 enzyme [1] was 0.00398 µM; on human MetAP2 enzyme [2] it was 0.0631 µM.

As to `O=C(NCCO)c1ccc(-c2cc(C(F)(F)F)cc3[nH]ncc23)cn1` [Example 270, N-(2-hydroxyethyl)-5-(6-(trifluoromethyl)-1H-indazol-4-yl)picolinamide], the IC50 against human MetAP2 enzyme [1] was 0.00316 µM; on human MetAP2 enzyme [2], 0.0398 µM.

As for `C[C@H](O)CNC(=O)c1cc(-c2cc(C(F)(F)F)cc3[nH]ncc23)c(=O)n(C)c1` [Example 359, (S)—N-(2-hydroxypropyl)-1-methyl-6-oxo-5-(6-(trifluoromethyl)-1H-indazol-4-yl)-1,6-dihydropyridine-3-carboxamide], the IC50 is 0.01 µM against human MetAP2 enzyme [1] and 0.501 µM at human MetAP2 enzyme [2].

As for `Cc1nc(C(=O)NCCO)ccc1-c1cc(C(F)(F)F)cc2[nH]ncc12` [Example 387, N-(2-hydroxyethyl)-6-methyl-5-(6-(trifluoromethyl)-1H-indazol-4-yl)picolinamide], the IC50 on human MetAP2 enzyme [1] was 0.00631 µM; against human MetAP2 enzyme [2] it was 0.0251 µM.

`Cn1c(-c2cc(C(F)(F)F)cc3[nH]ncc23)cc2ccccc21` [Example 51, 4-(1-methyl-1H-indol-2-yl)-6-(trifluoromethyl)-1H-indazole]: the IC50 is 0.1 µM against human MetAP2 enzyme [1] and 2.51 µM at human MetAP2 enzyme [2].

Take `Cc1nn(Cc2cnn(C)c2)c(CO)c1-c1cc(C(F)(F)F)cc2[nH]ncc12` [Example 410, (3-methyl-1-((1-methyl-1H-pyrazol-4-yl)methyl)-4-(6-(trifluoromethyl)-1H-indazol-4-yl)-1H-pyrazol-5-yl)methanol]: the figures for the IC50 at human MetAP2 enzyme [1] and on human MetAP2 enzyme [2] were 0.00631 µM and 0.0158 µM, respectively.

In the case of `COc1ncccc1-c1cc(C(F)(F)F)cc2[nH]ncc12` [Example 53, 4-(2-methoxypyridin-3-yl)-6-(trifluoromethyl)-1H-indazole], the results for the IC50 on human MetAP2 enzyme [1] and at human MetAP2 enzyme [2] were 0.00501 µM and 0.0398 µM, respectively.

With `Cc1nn2c(=O)[nH]ncc2c1-c1cc(C(F)(F)F)cc2[nH]ncc12` [Example 222, 2-methyl-3-(6-(trifluoromethyl)-1H-indazol-4-yl)pyrazolo[1,5-d][1,2,4]triazin-7(6H)-one], the IC50 is 0.0158 µM against human MetAP2 enzyme [1] and 0.251 µM on human MetAP2 enzyme [2].

In the case of `OCCc1cccc(-c2cc(C(F)(F)F)cc3[nH]ncc23)c1` [Example 106, 2-(3-(6-(trifluoromethyl)-1H-indazol-4-yl)phenyl)ethanol], the half-inhibitory concentration (IC50) against human MetAP2 enzyme [1] was 0.0126 µM; against human MetAP2 enzyme [2] it was 0.158 µM.

In the case of `C[C@@H](O)CNC(=O)c1cc(-c2cc(C(F)(F)F)cc3[nH]ncc23)c(=O)n(C)c1` [Example 358, (R)—N-(2-hydroxypropyl)-1-methyl-6-oxo-5-(6-(trifluoromethyl)-1H-indazol-4-yl)-1,6-dihydropyridine-3-carboxamide], the results for the half-maximal inhibitory concentration (IC50) at human MetAP2 enzyme [1] and against human MetAP2 enzyme [2] were 0.01 µM and 0.501 µM, respectively.

With `FC(F)(F)c1cc(-c2cnc(N3CCOCC3)cn2)c2cn[nH]c2c1` [Example 94, 4-(5-(6-(trifluoromethyl)-1H-indazol-4-yl)pyrazin-2-yl)morpholine], the IC50 against human MetAP2 enzyme [1] is 0.00316 µM; at human MetAP2 enzyme [2], 0.0631 µM.

Take `NC(=O)c1ccc(-c2cc(C(F)(F)F)cc3[nH]ncc23)cn1` [Example 251, 5-(6-(trifluoromethyl)-1H-indazol-4-yl)picolinamide]: the IC50 against human MetAP2 enzyme [1] was 0.00501 µM; against human MetAP2 enzyme [2], 0.0631 µM.

On to `Cn1cc(-c2cc(C(F)(F)F)cc3[nH]ncc23)c(=O)n(CCO)c1=O` [Example 303, 3-(2-hydroxyethyl)-1-methyl-5-(6-(trifluoromethyl)-1H-indazol-4-yl)pyrimidine-2,4(1H,3H)-dione], for which the half-maximal inhibitory concentration (IC50) is 0.0126 µM on human MetAP2 enzyme [1] and 1 µM on human MetAP2 enzyme [2].

As for `Cc1nn(CCN(C)C)c(C)c1-c1cc(C(F)(F)F)cc2[nH]ncc12` [Example 219, 2-(3,5-dimethyl-4-(6-(trifluoromethyl)-1H-indazol-4-yl)-1H-pyrazol-1-yl)-N,N-dimethylethanamine], the values for the IC50 against human MetAP2 enzyme [1] and against human MetAP2 enzyme [2] were 0.0126 µM and 0.0501 µM, respectively.

Take `COCCNc1ncc(-c2cc(C(F)(F)F)cc3[nH]ncc23)cn1` [Example 293, N-(2-methoxyethyl)-5-(6-(trifluoromethyl)-1H-indazol-4-yl)pyrimidin-2-amine]: the values for the IC50 against human MetAP2 enzyme [1] and against human MetAP2 enzyme [2] were 0.00631 µM and 0.1 µM, respectively.

In the case of `O=C(Cn1cncn1)NCc1ccccc1-c1cc(C(F)(F)F)cc2[nH]ncc12` [Example 202, 2-(1H-1,2,4-triazol-1-yl)-N-(2-(6-(trifluoromethyl)-1H-indazol-4-yl)benzyl)acetamide], the IC50 was 0.0251 µM against human MetAP2 enzyme [1] and 0.501 µM on human MetAP2 enzyme [2].

Turning to `Cc1nc(CCS(C)(=O)=O)ccc1-c1cc(C(F)(F)F)cc2[nH]ncc12` [Example 409, 4-(2-methyl-6-(2-(methylsulfonyl)ethyl)pyridin-3-yl)-6-(trifluoromethyl)-1H-indazole], the results for the IC50 against human MetAP2 enzyme [1] and against human MetAP2 enzyme [2] were 0.00398 µM and 0.0158 µM, respectively.

With `Cc1[nH]c(=O)ccc1-c1cc(C(F)(F)F)cc2[nH]ncc12` [Example 389, 6-methyl-5-(6-(trifluoromethyl)-1H-indazol-4-yl)pyridin-2(1H)-one], the IC50 is 0.00398 µM against human MetAP2 enzyme [1] and 0.0501 µM against human MetAP2 enzyme [2].

Take `Cc1cc(S(N)(=O)=O)ccc1-c1cc(C(F)(F)F)cc2[nH]ncc12` [Example 186, 3-methyl-4-(6-(trifluoromethyl)-1H-indazol-4-yl)benzenesulfonamide]: the IC50 against human MetAP2 enzyme [1] was 0.00794 µM; on human MetAP2 enzyme [2] it was 0.02 µM.

With `FC(F)(F)c1cc(-c2ccc(N3CCOCC3)nc2)c2cn[nH]c2c1` [Example 89, 4-(5-(6-(trifluoromethyl)-1H-indazol-4-yl)pyridin-2-yl)morpholine], the IC50 at human MetAP2 enzyme [1] was 0.00398 µM; at human MetAP2 enzyme [2] it was 0.02 µM.

Take `N#Cc1ccc2ncc(-c3cc(C(F)(F)F)cc4[nH]ncc34)n2c1` [Example 153, 3-(6-(trifluoromethyl)-1H-indazol-4-yl)imidazo[1,2-a]pyridine-6-carbonitrile]: the 50% inhibitory concentration (IC50) was 0.0251 µM against human MetAP2 enzyme [1] and 0.2 µM on human MetAP2 enzyme [2].

Regarding `Cn1cnc2ccc(-c3cc(C(F)(F)F)cc4[nH]ncc34)cc21` [Example 64, 4-(1-methyl-1H-benzo[d]imidazol-6-yl)-6-(trifluoromethyl)-1H-indazole], the values for the half-maximal inhibitory concentration (IC50) against human MetAP2 enzyme [1] and at human MetAP2 enzyme [2] were 0.01 µM and 0.0316 µM, respectively.

On to `CN1C(=O)COc2ccc(-c3cc(C(F)(F)F)cc4[nH]ncc34)cc21` [Example 296, 4-methyl-6-(6-(trifluoromethyl)-1H-indazol-4-yl)-2H-benzo[b][1,4]oxazin-3(4H)-one], for which the IC50 was 0.00631 µM against human MetAP2 enzyme [1] and 0.02 µM against human MetAP2 enzyme [2].

For `Cc1nn(CC(=O)N2CC(O)C2)c(C)c1-c1cc(C(F)(F)F)cc2[nH]ncc12` [Example 366, 2-(3,5-dimethyl-4-(6-(trifluoromethyl)-1H-indazol-4-yl)-1H-pyrazol-1-yl)-1-(3-hydroxyazetidin-1-yl)ethanone], the figures for the 50% inhibitory concentration (IC50) against human MetAP2 enzyme [1] and against human MetAP2 enzyme [2] were 0.0158 µM and 0.0501 µM, respectively.

For the compound `O=S(=O)(c1ccc(-c2cc(C(F)(F)F)cc3[nH]ncc23)cc1)n1cccn1` [Example 223, 4-(4-(1H-pyrazol-1-ylsulfonyl)phenyl)-6-(trifluoromethyl)-1H-indazole], the results for the half-inhibitory concentration (IC50) against human MetAP2 enzyme [1] and at human MetAP2 enzyme [2] were 0.00794 µM and 0.126 µM, respectively.

Turning to `C[C@@H](O)CNc1ncc(-c2cc(C(F)(F)F)cc3[nH]ncc23)cn1` [Example 207, (R)-1-(5-(6-(trifluoromethyl)-1H-indazol-4-yl)pyrimidin-2-ylamino)propan-2-ol], the figures for the 50% inhibitory concentration (IC50) at human MetAP2 enzyme [1] and at human MetAP2 enzyme [2] were 0.00794 µM and 0.0794 µM, respectively.

For `CNC(=O)c1ccc(-c2cc(C(F)(F)F)cc3[nH]ncc23)cn1` [Example 97, N-methyl-5-(6-(trifluoromethyl)-1H-indazol-4-yl)picolinamide], the figures for the 50% inhibitory concentration (IC50) against human MetAP2 enzyme [1] and at human MetAP2 enzyme [2] were 0.00251 µM and 0.0501 µM, respectively.

Take `N#CCc1cccc(-c2cc(C(F)(F)F)cc3[nH]ncc23)c1` [Example 90, 2-(3-(6-(trifluoromethyl)-1H-indazol-4-yl)phenyl)acetonitrile]: the concentration for half-maximal inhibition (IC50) was 0.00316 µM at human MetAP2 enzyme [1] and 0.0316 µM at human MetAP2 enzyme [2].

Turning to `NS(=O)(=O)c1ccc(-c2cc(C(F)(F)F)cc3[nH]ncc23)cn1` [Example 345, 5-(6-(trifluoromethyl)-1H-indazol-4-yl)pyridine-2-sulfonamide], the IC50 at human MetAP2 enzyme [1] was 0.00501 µM; against human MetAP2 enzyme [2], 0.1 µM.

As for `Cc1c(C(=O)NCCO)cc(-c2cc(C(F)(F)F)cc3[nH]ncc23)c(=O)n1C` [Example 404, N-(2-hydroxyethyl)-1,2-dimethyl-6-oxo-5-(6-(trifluoromethyl)-1H-indazol-4-yl)-1,6-dihydropyridine-3-carboxamide], the IC50 is 0.0126 µM against human MetAP2 enzyme [1] and 0.251 µM against human MetAP2 enzyme [2].

In the case of `O=S(=O)(CCO)c1ccccc1-c1cc(C(F)(F)F)cc2[nH]ncc12` [Example 182, 2-(2-(6-(trifluoromethyl)-1H-indazol-4-yl)phenylsulfonyl)ethanol], the figures for the IC50 at human MetAP2 enzyme [1] and at human MetAP2 enzyme [2] were 0.0251 µM and 0.794 µM, respectively.

Regarding `COCCOc1ccc(-c2cc(C(F)(F)F)cc3[nH]ncc23)c(C)n1` [Example 362, 4-(6-(2-methoxyethoxy)-2-methylpyridin-3-yl)-6-(trifluoromethyl)-1H-indazole], the IC50 was 0.0158 µM at human MetAP2 enzyme [1] and 0.0398 µM against human MetAP2 enzyme [2].
